Assay results as given in patent publication US8563553B2, “Compounds and compositions as protein kinase inhibitors” (Novartis AG, priority 2009, dated 2013).

Each compound was assayed against b-Raf(V600E) (Homo sapiens (Human), UniProt P15056, V600E) (assay: Raf/Mek Amplified Luminescence Proximity Homogeneous Assay (Alpha Screen)). Details: b-Raf(V600E) approximately 4 pM; biotinylated Mek, kinase dead approximately 10 nM; ATP 10 μM; pre-incubation 60 minutes; reaction 3 hours at room temperature; read-out: mut-B-RAF IC50.
b-Raf(V600E), sequence (P15056 whole entry V600E): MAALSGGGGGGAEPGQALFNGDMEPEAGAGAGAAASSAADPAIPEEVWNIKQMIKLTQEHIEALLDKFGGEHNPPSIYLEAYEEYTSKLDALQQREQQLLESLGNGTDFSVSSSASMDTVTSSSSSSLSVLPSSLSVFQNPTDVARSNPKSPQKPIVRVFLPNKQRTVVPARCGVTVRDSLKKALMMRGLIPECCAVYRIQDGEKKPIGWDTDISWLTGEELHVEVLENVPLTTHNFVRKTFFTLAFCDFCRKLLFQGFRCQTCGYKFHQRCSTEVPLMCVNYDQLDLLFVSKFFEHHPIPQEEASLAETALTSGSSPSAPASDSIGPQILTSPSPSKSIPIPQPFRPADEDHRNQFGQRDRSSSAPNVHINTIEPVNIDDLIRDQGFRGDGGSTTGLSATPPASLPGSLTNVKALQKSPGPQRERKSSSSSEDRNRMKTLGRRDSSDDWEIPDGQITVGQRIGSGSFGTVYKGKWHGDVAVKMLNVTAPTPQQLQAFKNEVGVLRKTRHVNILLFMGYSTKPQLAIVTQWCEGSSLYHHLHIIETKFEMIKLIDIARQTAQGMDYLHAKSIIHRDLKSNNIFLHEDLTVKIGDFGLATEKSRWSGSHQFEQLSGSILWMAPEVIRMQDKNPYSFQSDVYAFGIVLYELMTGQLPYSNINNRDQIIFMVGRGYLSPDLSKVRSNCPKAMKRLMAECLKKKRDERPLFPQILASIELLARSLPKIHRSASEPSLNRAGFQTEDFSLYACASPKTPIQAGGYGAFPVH
Assay type: biochemical
Procedure: Raf/Mek Amplified Luminescence Proximity Homogeneous Assay
Assay buffer: 50 mM Tris, pH 7.5, 15 mM MgCl2, 0.01% Bovine Serum Albumin (BSA), 1 mM dithiothreitol (DTT) Stop buffer: 60 mM ethylenediaminetetraacetic acid (EDTA), 0.01% Tween® 20 Bead buffer: 50 mM Tris, pH 7.5, 0.01% Tween® 20 […]
biotinylated Mek, kinase dead
Alpha Screen detection kit (available from PerkinElmer™, #6760617R)
Anti phospho-MEK1/2 (available from Cell Signaling Technology, Inc. #9121) 384 well assay plates (White Greiner® plates, #781207) […]
biotinylated Mek, Kinase dead approximately 10 nM
Pre-incubation time with compounds 60 minutes at room temperature
Reaction time 1 or 3 hours at room temperature
Raf and biotinylated Mek, kinase dead, were combined at 2× final concentrations in assay buffer (50 mM Tris, pH 7.5, 15 mM MgCl2, 0.01% BSA and 1 mM DTT) and dispensed 10 μl per well in assay plates (Greiner white 384 well assay plates #781207) containing 0.5 μl of 40× of a raf kinase inhibitor test compound diluted in 100% DMSO. The plate was incubated for 60 minutes at room temperature.
The Raf kinase activity reaction was started by the addition of 10 μL per well of 2×ATP diluted in assay buffer. […] Phosphorylated product was measured using a rabbit anti-p-MEK (Cell Signaling, #9121) antibody and the Alpha Screen IgG (ProteinA) detection Kit (PerkinElmer #6760617R), by the addition of 30 μL to the well of a mixture of the antibody (1:2000 dilution) and detection beads (1:2000 dilution of both beads) in bead buffer (50 mM Tris, pH 7.5, 0.01% Tween20). The additions were carried out under dark conditions to protect the detection beads from light. A lid was placed on top of the plate and incubated for 1 hour at room temperature, then the luminescence was read on a PerkinElmer Envision instrument. The concentration of each compound for 50% inhibition (IC50) was calculated by non-linear regression using XL Fit data analysis software.
With COC(=O)N[C@@H](C)CNc1nccc(-c2[nH]c(C3CC3)nc2-c2cc(Cl)cc(NS(C)(=O)=O)c2F)n1 [Example 1A, (S)-methyl 1-(4-(4-(5-chloro-2-fluoro-3-(methylsulfonamido)phenyl)-2-cyclopropyl-1H-imidazol-5-yl)pyrimidin-2-ylamino)propan-2-ylcarbamate] the IC50 was 0.2 nM.
Work on COC(=O)N[C@@H](C)CNc1nccc(-c2nc(C3CC3)[nH]c2-c2cc(Cl)cc(NS(=O)(=O)CCC(F)(F)F)c2F)n1 [Example 1AA, (S)-Methyl 1-(4-(5-(5-chloro-2-fluoro-3-(3,3,3-trifluoropropylsulfonamido)phenyl)-2-cyclopropyl-1H-imidazol-4-yl)pyrimidin-2-ylamino)propan-2-ylcarbamate] yielded an IC50 of 0.6 nM.
COC(=O)N[C@@H](C)CNc1nccc(-c2[nH]c(C3CC3)nc2-c2cc(C)cc(NS(C)(=O)=O)c2Cl)n1 [Example 1AB, (S)-Methyl 1-(4-(4-(2-chloro-5-methyl-3-(methylsulfonamido)phenyl)-2-cyclopropyl-1H-imidazol-5-yl)pyrimidin-2-ylamino)propan-2-ylcarbamate] showed an IC50 of 1.1 nM.
COC(=O)N[C@@H](C)CNc1nccc(-c2nc(C3CC3)[nH]c2-c2cc(Cl)cc(NS(=O)(=O)CC3CC3)c2F)n1 [Example 1AC, (S)-Methyl 1-(4-(5-(5-chloro-3-(cyclopropylmethylsulfonamido)-2-fluorophenyl)-2-cyclopropyl-1H-imidazol-4-yl)pyrimidin-2-ylamino)propan-2-ylcarbamate] showed an IC50 of 0.26 nM.
For CCS(=O)(=O)Nc1cc(F)cc(-c2nc(C3CC3)[nH]c2-c2ccnc(NC[C@H](C)NC(=O)OC)n2)c1Cl [Example 1AD, (S)-Methyl 1-(4-(4-(2-chloro-3-(ethylsulfonamido)-5-fluorophenyl)-2-cyclopropyl-1H-imidazol-5-yl)pyrimidin-2-ylamino)propan-2-ylcarbamate], the IC50 was 0.43 nM.
Compound COC(=O)N[C@@H](C)CNc1nccc(-c2[nH]c(C3CC3)nc2-c2cc(F)cc(NS(=O)(=O)C3CC3)c2Cl)n1 [Example 1AE, (S)-Methyl 1-(4-(4-(2-chloro-3-(cyclopropanesulfonamido)-5-fluorophenyl)-2-cyclopropyl-1H-imidazol-5-yl)pyrimidin-2-ylamino)propan-2-ylcarbamate] has an IC50 of 0.3 nM.
In the case of CCCS(=O)(=O)Nc1ccc(F)c(-c2nc(C3CC3)[nH]c2-c2ccnc(NC[C@H](C)NC(=O)OC)n2)c1Cl [Example 1AF, Methyl (2S)-1-(4-(4-(2-chloro-6-fluoro-3-(propylsulfonamido)phenyl)-2-cyclopropyl-1H-imidazol-5-yl)pyrimidin-2-ylamino)propan-2-ylcarbamate], the IC50 is reported as 0.45 nM.
COC(=O)N[C@@H](C)CNc1nccc(-c2[nH]c(C(C)(C)C)nc2-c2cc(F)cc(NS(C)(=O)=O)c2Cl)n1 [Example 1AG, (S)-Methyl 1-(4-(2-tert-butyl-4-(2-chloro-5-fluoro-3-(methylsulfonamido)phenyl)-1H-imidazol-5-yl)pyrimidin-2-ylamino)propan-2-ylcarbamate] showed an IC50 of 1 nM.
Work on CCCS(=O)(=O)Nc1cc(F)cc(-c2nc(C(C)(C)C)[nH]c2-c2ccnc(NC[C@H](C)NC(=O)OC)n2)c1Cl [Example 1AH] yielded an IC50 of 1 nM.
Work on COC(=O)N[C@@H](C)CNc1nccc(-c2[nH]c(C(C)(C)C)nc2-c2cc(Cl)cc(NS(C)(=O)=O)c2F)n1 [Example 1AI, (S)-Methyl 1-(4-(2-tert-butyl-4-(5-chloro-2-fluoro-3-(methylsulfonamido)phenyl)-1H-imidazol-5-yl)pyrimidin-2-ylamino)propan-2-ylcarbamate] yielded an IC50 of 0.28 nM.
Compound CCS(=O)(=O)Nc1cc(Cl)cc(-c2nc(C(C)(C)C)[nH]c2-c2ccnc(NC[C@H](C)NC(=O)OC)n2)c1F [Example 1AJ, (S)-Methyl 1-(4-(2-tert-butyl-4-(5-chloro-3-(ethylsulfonamido)-2-fluorophenyl)-1H-imidazol-5-yl)pyrimidin-2-ylamino)propan-2-ylcarbamate] has an IC50 of 0.46 nM.
With CC(C#N)CNc1nccc(-c2[nH]c(C3CC3)nc2-c2cccc(NS(C)(=O)=O)c2Cl)n1 (centres unmarked) [Example 1AK, N-(2-Chloro-3-(5-(2-(2-cyanopropylamino)pyrimidin-4-yl)-2-cyclopropyl-1H-imidazol-4-yl)phenyl)methanesulfonamide] the IC50 was 11 nM.
For COC(=O)N[C@@H](C)CNc1nccc(-c2nc(C3(C)CC3)[nH]c2-c2cc(Cl)cc(NS(C)(=O)=O)c2F)n1 [Example 1AL], the IC50 was 1 nM.
COC(=O)N[C@@H](C)CNc1nccc(-c2nc(C3(C)CC3)[nH]c2-c2cc(C)cc(NS(C)(=O)=O)c2F)n1 [Example 1AM, (S)-Methyl 1-(4-(5-(2-fluoro-5-methyl-3-(methylsulfonamido)phenyl)-2-(1-methylcyclopropyl)-1H-imidazol-4-yl)pyrimidin-2-ylamino)propan-2-ylcarbamate] was tested, and the IC50 was 1 nM.
With CCCNc1nccc(-c2[nH]c(C3CC3)nc2-c2cc(F)cc(NS(=O)(=O)CCC)c2Cl)n1 [Example 1AN, N-(2-Chloro-3-(2-cyclopropyl-5-(2-(propylamino)pyrimidin-4-yl)-1H-imidazol-4-yl)-5-fluorophenyl)propane-1-sulfonamide] the IC50 was 0.39 nM.
With COC(=O)N[C@@H](C)CNc1nccc(-c2nc(C3(C)CC3)[nH]c2-c2cccc(NS(C)(=O)=O)c2Cl)n1 [Example 1AO, (S)-Methyl 1-(4-(5-(2-chloro-3-(methylsulfonamido)phenyl)-2-(1-methylcyclopropyl)-1H-imidazol-4-yl)pyrimidin-2-ylamino)propan-2-ylcarbamate] the IC50 was 1 nM.
CCCNc1nccc(-c2[nH]c(C3CC3)nc2-c2cc(F)cc(NS(C)(=O)=O)c2Cl)n1 [Example 1AP, N-(2-Chloro-3-(2-cyclopropyl-5-(2-(propylamino)pyrimidin-4-yl)-1H-imidazol-4-yl)-5-fluorophenyl)methanesulfonamide] gave an IC50 of 5 nM.
CCNc1nccc(-c2[nH]c(C3CC3)nc2-c2cc(F)cc(NS(C)(=O)=O)c2Cl)n1 [Example 1AQ, N-(2-Chloro-3-(2-cyclopropyl-5-(2-(ethylamino)pyrimidin-4-yl)-1H-imidazol-4-yl)-5-fluorophenyl)methanesulfonamide] gave an IC50 of 11 nM.
In the case of CC(C)CNc1nccc(-c2[nH]c(C3CC3)nc2-c2cc(F)cc(NS(C)(=O)=O)c2Cl)n1 [Example 1AR, N-(2-Chloro-3-(2-cyclopropyl-5-(2-(isobutylamino)pyrimidin-4-yl)-1H-imidazol-4-yl)-5-fluorophenyl)methanesulfonamide], the IC50 is reported as 5 nM.
In the case of CCCS(=O)(=O)Nc1cc(F)cc(-c2nc(C3CC3)[nH]c2-c2ccnc(NCC)n2)c1Cl [Example 1AS, N-(2-Chloro-3-(2-cyclopropyl-5-(2-(ethylamino)pyrimidin-4-yl)-1H-imidazol-4-yl)-5-fluorophenyl)propane-1-sulfonamide], the IC50 is reported as 1 nM.
With CC(C)Nc1nccc(-c2[nH]c(C3CC3)nc2-c2cc(F)cc(NS(C)(=O)=O)c2Cl)n1 [Example 1AT, N-(2-Chloro-3-(2-cyclopropyl-5-(2-(isopropylamino)pyrimidin-4-yl)-1H-imidazol-4-yl)-5-fluorophenyl)methanesulfonamide] the IC50 was 25 nM.
In the case of CCCS(=O)(=O)Nc1cc(F)cc(-c2nc(C3CC3)[nH]c2-c2ccnc(NC(C)C)n2)c1Cl [Example 1AU, N-(2-Chloro-3-(2-cyclopropyl-5-(2-(isopropylamino)pyrimidin-4-yl)-1H-imidazol-4-yl)-5-fluorophenyl)propane-1-sulfonamide], the IC50 is reported as 5 nM.
Compound COC(=O)N[C@H](C)CNc1nccc(-c2[nH]c(C3CC3)nc2-c2cc(F)cc(NS(C)(=O)=O)c2Cl)n1 [Example 1AV, (R)-Methyl 1-(4-(4-(2-chloro-5-fluoro-3-(methylsulfonamido)phenyl)-2-cyclopropyl-1H-imidazol-5-yl)pyrimidin-2-ylamino)propan-2-ylcarbamate] has an IC50 of 11 nM.
COC(=O)N[C@@H](C)CNc1nccc(-c2nc(C3CC3)[nH]c2-c2cc(Cl)cc(NS(=O)(=O)c3ccc(F)cc3)c2F)n1 [Example 1AW] gave an IC50 of 1 nM.
COC(=O)N[C@@H](C)CNc1nccc(-c2nc(C3CC3)[nH]c2-c2cc(Cl)cc(NS(=O)(=O)c3cccc(F)c3)c2F)n1 [Example 1AX, (S)-Methyl 1-(4-(5-(5-chloro-2-fluoro-3-(3-fluorophenylsulfonamido)phenyl)-2-cyclopropyl-1H-imidazol-4-yl)pyrimidin-2-ylamino)propan-2-ylcarbamate] showed an IC50 of 0.33 nM.
CC1(c2nc(-c3cc(F)cc(NS(C)(=O)=O)c3Cl)c(-c3ccnc(NCCC#N)n3)[nH]2)CC1 [Example 1AY, N-(2-Chloro-3-(5-(2-(2-cyanoethylamino)pyrimidin-4-yl)-2-(1-methylcyclopropyl)-1H-imidazol-4-yl)-5-fluorophenyl)methanesulfonamide] was tested, and the IC50 was 0.23 nM.
